Patent US20140045908A1, “HSP90 INHIBITORY COMPOUNDS IN TREATING JAK/STAT SIGNALING-MEDIATED CANCERS” (SYNTA PHARMACEUTICALS CORP., priority 2011, published 2014)
pIC50: −log10 of the molar value.

Experiments:
DU145 cells = assay: Cell viability assay (AlamarBlue, 72 h); type: cell-based, human
Description: (§1) All cell lines were obtained from the ATCC (Rockville, Md., USA), with the exception of SET-2 cells which were purchased from the German Collection of Microorganisms and Cell Cultures (DSMZ, Germany). Cells were maintained and cultured according to standard techniques at 37° C. in 5% (v/v) CO2 using culture medium recommended by the supplier.
(§2) Cells were grown in 96-well plates based on optimal growth rates determined empirically for each line. Twenty-four hours after plating, cells were dosed with the indicated compound or DMSO (0.3%) for 72 h. AlamarBlue (Invitrogen, Carlsbad, Calif., USA) was added (10% v/v) to the cells, and the plates were incubated for 3 h and subjected to fluorescence detection (Ex=545 nm, Em=600 nm) in a SpectraMax Plus 384 microplate reader (Molecular Devices, Sunnyvale, Calif., USA). Data are normalized to percent of control, with IC50 values based on a four-parameter logistic dose response curve (model 205) using XLfit version 5.1 from IDBS (Guildford, U.K.).

HEL92.1.7 cells [1] = assay: Cell viability assay (AlamarBlue, 72 h); type: cell-based, human
Description: as §1, §2

MV4-11 cells = assay: Cell viability assay (AlamarBlue, 72 h); type: cell-based, human
Description: as §1, §2

SET-2 cells = assay: Cell viability assay (AlamarBlue, 72 h); type: cell-based, human
Description: as §1, §2

HEL92.1.7 cells [2] = assay: Flow cytometry cell cycle analysis; type: cell-based, human
Description: HEL92.1.7 cells were plated at 0.5×10^6 cells/mL and treated as indicated. Cells were harvested and stained with propidium iodide using the BD Cycle TEST PLUS Reagent Kit (BD Biosciences, San Jose, Calif., USA) according to the manufacturer's instructions. Twenty thousand cells were analyzed for their DNA content using a FACS Caliber cytometer (BD Biosciences).

[3] = test system: HEL92.1.7 cells (JAK2V617F); assay: HEL92.1.7 disseminated (orthotopic) leukemia survival model; type: in vivo
Description: Beginning 1 day after tumor cell implantation, ganetespib was i.v. dosed at its HNSTD (25 mg/kg) on a five-times per week schedule for 3 weeks through day 19 ([…]). *P<0.0001; 2-sided log-rank test.
Eight-week-old female immunodeficient CB-17/Icr-Prkdcscid/Crl (SCID) mice (Charles River Laboratories, Wilmington, Mass.) were maintained in a pathogen-free environment, and all in vivo procedures were approved by the Synta Pharmaceuticals Corp. Institutional Animal Care and Use Committee. For the MV4-11 model, tumor cells were subcutaneously implanted in SCID mice as previously described (34). Tumor volumes (V) were calculated by caliper measurements of the width (W), length (L), and thickness (T) of each tumor using the formula: V=0.5236 (LWT).
For the HEL92.1.7 model, SCID mice were i.v. injected via the tail vein with 5×10^6 cells in phosphate-buffered saline (PBS) on day 0. Implanted animals were then randomized into groups of 10 and i.v. dosed via the tail vein at 10 mL/kg body weight with either vehicle or ganetespib formulated in 10/18 DRD. Animals were weighed daily and removed from the study at the first sign of hind limb paralysis, which occurred in 100% of vehicle-treated animals. Median overall survival was estimated using the Kaplan-Meier method and the log-rank test (2-sided) for statistical significance. Tumor cells were identified as either CD44- or CD54-positive cells within the CD45-negative population. Spinal column tumor burden was determined by quantitative image analysis with ImageJ software (Wayne Rasband, National Institute of Mental Health) of hematoxylin and eosin stained tissue sections.
For both models, studies were conducted at the highest non-severely toxic doses (NHSTDs) of 150 mg/kg ganetespib one-time per week or 25 mg/kg ganetespib 5×/week for 3 weeks based on prior tolerability studies conducted in non-tumor bearing mice.

CC(C)c1cc(-c2nnc(O)n2-c2ccc3c(ccn3C)c2)c(O)cc1O [ganetespib, 3-(2,4-dihydroxy-5-isopropyl-phenyl)-4-(1-methyl-indol-5-yl)-5-hydroxy-[1,2,4] triazole]
induction of cell death (DU145 cells): potent inducer of cell death | fold more potent than 17-AAG, cell viability (HEL92.1.7 cells [1]; 72 h): greater than 100 fold | pIC50 (HEL92.1.7 cells [1]; Homo sapiens, HEL 92.1.7, 72 h, Alamar blue, read-out: IC50, loss of cellular viability): 7.70 | sensitivity of cells in vitro (MV4-11 cells): highly sensitive | fold more potent than 17-AAG, cell viability (SET-2 cells): greater than 100 fold | cell cycle distribution (HEL92.1.7 cells [2]): temporal G1 and G2/M arrest in HEL92.1.7 cells, with concomitant loss of S phase | tumor cell burden in bone marrow and spinal cord (histological analysis) ([3]; 25 mg/kg i.v. 5×/week): dramatically decreased tumor cell burden | median overall survival ([3]; 25 mg/kg i.v. 5×/week through day 19, SCID mice): 76.5 days | body weight (tolerability) ([3]; 25 mg/kg i.v. 5×/week, after 3 weeks of dosing): no significant loss of body weight
